Inhibition data for 33 molecules are collected here from US20100210649A1, “PYRIDAZINONES AND FURAN-CONTAINING COMPOUNDS” (Sloan-Kettering Institute for Cancer Research, priority 2006, published 2010).

A word on the inhibition: it is the drop in the measured response relative to a control, in per cent.

Type in all cases: cell-based, human
Settings in all cases: Homo sapiens

For one assay, the system named is H1650. Briefly: Non Small Cell Lung Cancer proliferation assay (Alamar Blue reduction), H1650. A digest of the protocol: (§1)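 Dose-response run: cells were counted, dispensed at 250 cells/well onto compound, incubated 48 hours at 37° C, then incubated with Alamar Blue for an additional 48 hours before fluorescence measurement. All wells held 1% DMSO final.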
On the technique in general: Resazurin is reduced to fluorescent resorufin, in cell work by metabolically active cells.

A further assay relates to H1975. Briefly: Non Small Cell Lung Cancer proliferation assay (Alamar Blue reduction), H1975. The procedure, abridged: as §1
For a further assay, the system named is H2030. Briefly: Non Small Cell Lung Cancer proliferation assay (Alamar Blue reduction), H2030. The procedure, abridged:
as §1

For the next assay, the system named is H3255. The assay is described as follows: Non Small Cell Lung Cancer proliferation assay (Alamar Blue reduction), H3255. A digest of the protocol:
as §1

The mark [1] stands for this setting: NCI-H1650, primary screening, 10 μM compound in 1% DMSO (v/v), read-out: percentage inhibition H1650.
[2] abbreviates: NCI-H1975, primary screening, 10 μM compound in 1% DMSO (v/v), read-out: percentage inhibition H1975.
The mark [3] stands for this setting: NCI-H2030, primary screening, 10 μM compound in 1% DMSO (v/v), read-out: percentage inhibition H2030.
The mark [4] stands for this setting: NCI-H3255, primary screening, 10 μM compound in 1% DMSO (v/v), read-out: percentage inhibition H3255.
The mark [5] stands for this setting: NCI-H1650, primary screening, H1650, 10 μM compound in 1% DMSO (v/v), read-out: PRIMARY HTS [%] H1650 (percentage inhibition).
Where [6] appears, read: NCI-H1975, primary screening, H1975, 10 μM compound in 1% DMSO (v/v), read-out: PRIMARY HTS [%] H1975 (percentage inhibition).
Setting [7] is: NCI-H2030, primary screening, H2030, 10 μM compound in 1% DMSO (v/v), read-out: PRIMARY HTS [%] H2030 (percentage inhibition).
Where [8] appears, read: NCI-H3255, primary screening, H3255, 10 μM compound in 1% DMSO (v/v), read-out: PRIMARY HTS [%] H3255 (percentage inhibition).

Like-named read-outs stand apart in the source and are kept apart here.

Consider `O=c1c(SCc2ccccc2Cl)c(SCc2ccccc2Cl)cnn1-c1ccccc1` [compound 208695], for which the inhibition at 10 µM with H1650 (setting [1]) was -14%; in the assay with H1975 (setting [2]), -13%; with H2030 (setting [3]), -11%; in the assay on H3255 (setting [4]), -2%.

For the molecule `O=C(COc1cnn(-c2ccccc2)c(=O)c1Cl)c1ccc(Cl)cc1` [compound 177215], the inhibition at 10 µM is 6% in the assay with H1650 (setting [1]), 25% in the assay on H1975 (setting [2]), -9% in the assay with H2030 (setting [3]) and 13% in the assay with H3255 (setting [4]).

For `O=c1c(Cl)c(Cl)cnn1-c1ccc(Cl)c(C(F)(F)F)c1` [compound 103719], the inhibition at 10 µM in the assay with H1650 (setting [1]) turned out to be 45%; in the assay with H1975 (setting [2]), 102%; in the assay with H2030 (setting [3]), 94%; in the assay with H3255 (setting [4]) it was 76%.

With `COC(=O)NCCOc1cnn(-c2ccccc2)c(=O)c1` [compound 189493], the inhibition at 10 µM was 2% in the assay on H1650 (setting [1]), 12% in the assay with H1975 (setting [2]), -8% with H2030 (setting [3]) and -25% in the assay on H3255 (setting [4]).

On to `CC1CN(C(=O)c2ccc([N+](=O)[O-])o2)CC(C)O1` (stereo not drawn) [compound 77942], for which the inhibition at 10 µM in the assay on H1650 (setting [5]) was 14%; with H1975 (setting [6]), -2%; in the assay on H2030 (setting [7]), 6%; with H3255 (setting [8]), 7%.

`O=c1cc(N2CCOCC2)cnn1-c1ccccc1` [compound 195066]: the inhibition at 10 µM is 8% in the assay on H1650 (setting [1]), -3% in the assay with H1975 (setting [2]), 9% in the assay on H2030 (setting [3]) and -9% in the assay with H3255 (setting [4]).

As to `O=c1c(Cl)c(Cl)cnn1-c1cccc(Cl)c1` [compound 104188], the inhibition at 10 µM with H1650 (setting [1]) is -13%; in the assay with H1975 (setting [2]), 102%; in the assay with H2030 (setting [3]) it was -4%; in the assay on H3255 (setting [4]), 4%.

Consider `CCOc1cnn(-c2ccccc2)c(=O)c1Cl` [compound 104217], for which the inhibition at 10 µM in the assay with H1650 (setting [1]) is -15%; with H1975 (setting [2]), -7%; in the assay on H2030 (setting [3]), 6%; with H3255 (setting [4]), -1%.

For the molecule `Nc1ccc(Sc2cnn(-c3ccccc3)c(=O)c2Cl)cc1` [compound 181612], the inhibition at 10 µM was 7% in the assay with H1650 (setting [1]), -11% in the assay on H1975 (setting [2]), 11% in the assay with H2030 (setting [3]) and 11% in the assay with H3255 (setting [4]).

For the molecule `COc1cnn(-c2cccc(C(F)(F)F)c2)c(=O)c1Cl` [compound 103872], the inhibition at 10 µM was 17% in the assay with H1650 (setting [1]), 9% with H1975 (setting [2]), 2% with H2030 (setting [3]) and -25% with H3255 (setting [4]).

In the case of `O=C(Nc1ccc(I)cc1)c1ccc([N+](=O)[O-])o1` [compound 103710], the inhibition at 10 µM was 33% with H1650 (NCI-H1650, read-out: PRIMARY HTS [%] H1650 (percentage inhibition)); 17% in the assay on H1975 (NCI-H1975, read-out: PRIMARY HTS [%] H1975 (percentage inhibition)); -5% with H2030 (NCI-H2030, read-out: PRIMARY HTS [%] H2030 (percentage inhibition)); 4% in the assay on H3255 (NCI-H3255, read-out: PRIMARY HTS [%] H3255 (percentage inhibition)).

Consider `O=c1c(Sc2ccc(Cl)cc2)cc(Cl)nn1-c1ccccc1` [compound 177261], for which the inhibition at 10 µM in the assay with H1650 (setting [1]) is 14%; in the assay with H1975 (setting [2]), 16%; in the assay with H2030 (setting [3]), -8%; in the assay on H3255 (setting [4]) it was 8%.

On to `O=c1c(SCc2ccccc2)c(N2CCOCC2)cnn1-c1ccccc1` [compound 224770], for which the inhibition at 10 µM in the assay with H1650 (setting [1]) was 65%; in the assay with H1975 (setting [2]) it was -8%; in the assay with H2030 (setting [3]), -8%; with H3255 (setting [4]), 24%.

Regarding `O=C(Nc1cccc([N+](=O)[O-])c1)c1ccco1` [compound 87246], the inhibition at 10 µM is 8% with H1650 (setting [5]), -3% in the assay on H1975 (setting [6]), 9% in the assay with H2030 (setting [7]) and 5% in the assay on H3255 (setting [8]).

Regarding `Cc1ccccc1-n1nc(C(=O)c2cccs2)cc(-c2nc3ccccc3[nH]2)c1=N` [compound 186018], the inhibition at 10 µM with H1650 (setting [1]) was 42%; in the assay with H1975 (setting [2]), -4%; in the assay with H2030 (setting [3]), 4%; with H3255 (setting [4]), 35%.

Turning to `COc1ccc(-n2nc(C(=O)c3ccccc3)cc(-c3nc4ccccc4[nH]3)c2=N)cc1` [compound 193067], the inhibition at 10 µM in the assay on H1650 (setting [1]) was -7%; with H1975 (setting [2]), 21%; with H2030 (setting [3]) it was 4%; in the assay on H3255 (setting [4]), -35%.

Take `CCCCSc1cnn(-c2ccccc2)c(=O)c1SCCCC` [compound 224766]: the inhibition at 10 µM with H1650 (setting [1]) is -12%; in the assay on H1975 (setting [2]), -29%; in the assay with H2030 (setting [3]), 95%; in the assay with H3255 (setting [4]) it was 24%.

With `CCOC(=O)C(C)Oc1ccc(=O)n(-c2ccccc2)n1` (stereo not drawn) [compound 185423], the inhibition at 10 µM in the assay on H1650 (setting [1]) is 16%; with H1975 (setting [2]), -9%; in the assay with H2030 (setting [3]), 3%; in the assay with H3255 (setting [4]), 23%.

Regarding `CCOc1c(Cl)cnn(-c2ccccc2)c1=O` [compound 104288], the inhibition at 10 µM in the assay on H1650 (setting [1]) was -13%; in the assay on H1975 (setting [2]), 102%; in the assay on H2030 (setting [3]), 66%; in the assay on H3255 (setting [4]), 46%.

For `O=C(Cc1ccccc1)Oc1ccc(=O)n(-c2ccccc2)n1` [compound 180651], the inhibition at 10 µM with H1650 (setting [1]) worked out at 21%; in the assay on H1975 (setting [2]) it was 13%; with H2030 (setting [3]), 11%; in the assay on H3255 (setting [4]), 35%.

In the case of `COc1cnn(-c2ccccc2)c(=O)c1S` [compound 187118], the inhibition at 10 µM with H1650 (setting [1]) was determined as 101%; in the assay on H1975 (setting [2]), 96%; with H2030 (setting [3]) it was 7%; in the assay with H3255 (setting [4]), 108%.

Consider `CSc1cnn(-c2ccccc2)c(=O)c1SCc1ccccc1` [compound 224764], for which the inhibition at 10 µM in the assay with H1650 (setting [1]) was 21%; in the assay with H1975 (setting [2]), -5%; in the assay with H2030 (setting [3]), -10%; with H3255 (setting [4]), -32%.

For the molecule `O=c1c(Cl)c(N2CCCC2)cnn1-c1ccccc1` [compound 103868], the inhibition at 10 µM in the assay with H1650 (setting [1]) was -7%; in the assay on H1975 (setting [2]) it was -18%; in the assay on H2030 (setting [3]) it was -4%; with H3255 (setting [4]), -3%.

For the molecule `CN1CCN(Cc2ccc([N+](=O)[O-])o2)CC1` [compound 100652], the inhibition at 10 µM in the assay with H1650 (setting [5]) was -12%; with H1975 (setting [6]), -2%; in the assay with H2030 (setting [7]), -6%; in the assay with H3255 (setting [8]), -3%.

For `O=C(Nc1ccc(NC(=O)c2ccco2)c(O)c1)c1ccccc1` [compound 76839], the inhibition at 10 µM in the assay on H1650 (setting [5]) is 20%; in the assay on H1975 (setting [6]), 3%; with H2030 (setting [7]), -6%; with H3255 (setting [8]), 2%.

As to `Cc1ccc(C)c(Sc2cnn(-c3ccccc3)c(=O)c2Cl)c1` [compound 183339], the inhibition at 10 µM is 15% with H1650 (setting [1]), 8% in the assay with H1975 (setting [2]), -12% in the assay with H2030 (setting [3]) and -30% in the assay on H3255 (setting [4]).

On to `COc1c(Cl)cnn(-c2cccc(C)c2)c1=O` [compound 104415], for which the inhibition at 10 µM was -20% in the assay on H1650 (setting [1]), 15% in the assay with H1975 (setting [2]), -3% in the assay on H2030 (setting [3]) and 9% in the assay with H3255 (setting [4]).

For the molecule `CCSc1cnn(-c2ccccc2)c(=O)c1SCC` [compound 174406], the inhibition at 10 µM in the assay with H1650 (setting [1]) was 18%; in the assay with H1975 (setting [2]) it was 3%; in the assay with H2030 (setting [3]), -9%; with H3255 (setting [4]) it was 8%.

For the molecule `COc1cc(Cl)nn(-c2ccccc2)c1=O` [compound 206569], the inhibition at 10 µM with H1650 (setting [1]) was -2%; with H1975 (setting [2]), 3%; with H2030 (setting [3]) it was 7%; in the assay with H3255 (setting [4]), 22%.

On to `O=C(Nc1ccc(Cl)cc1O)c1ccco1` [compound 75072], for which the inhibition at 10 µM turned out to be 13% in the assay with H1650 (setting [5]), 0% with H1975 (setting [6]), 5% with H2030 (setting [7]) and 1% in the assay with H3255 (setting [8]).

Regarding `O=c1c(Cl)c(N2CCN(CCO)CC2)cnn1-c1cccc(Cl)c1` [compound 194617], the inhibition at 10 µM with H1650 (setting [1]) was -9%; in the assay with H1975 (setting [2]) it was 9%; in the assay with H2030 (setting [3]) it was -4%; in the assay on H3255 (setting [4]), -5%.

On to `O=c1c(Cl)cc(Cl)nn1-c1ccccc1` [compound 196392], for which the inhibition at 10 µM in the assay with H1650 (setting [1]) is 87%; in the assay on H1975 (setting [2]), 99%; in the assay on H2030 (setting [3]), -13%; in the assay with H3255 (setting [4]) it was 111%.

As for `O=C(c1ccc([N+](=O)[O-])o1)N1CCc2ccccc21` [compound 100403], the inhibition at 10 µM in the assay with H1650 (setting [5]) is -13%; in the assay with H1975 (setting [6]), -13%; with H2030 (setting [7]), 3%; in the assay on H3255 (setting [8]), 2%.
